Experimental data as given in ChEMBL document CHEMBL5120862, “Novel non-covalent LSD1 inhibitors endowed with anticancer effects in leukemia and solid tumor cellular models” (Eur J Med Chem, 2022).
One block for each molecule: values may come before it. Activity calls are given as the source filed them. The rule behind the calls is not given here.

What was measured:
LSD1/CoREST complex [1] = molecular target: T1, LSD1/CoREST complex (Homo sapiens, UniProt O60341); assay: Binding affinity to human LSD1/CoREST assessed as dissociation constant by competitive fluorescence polarization assay; type: protein-complex assay
[2] = molecular target: T2, Histone-lysine N-methyltransferase EHMT2 (Homo sapiens, UniProt Q96KQ7); assay: Inhibition of G9a (unknown origin) assessed as reduction in substrate methylation using histone H3 and SAM as substrate measured after 15 to 60 mins by microfluidic capillary electrophoresis analysis
T2 sequence (Q96KQ7 whole entry): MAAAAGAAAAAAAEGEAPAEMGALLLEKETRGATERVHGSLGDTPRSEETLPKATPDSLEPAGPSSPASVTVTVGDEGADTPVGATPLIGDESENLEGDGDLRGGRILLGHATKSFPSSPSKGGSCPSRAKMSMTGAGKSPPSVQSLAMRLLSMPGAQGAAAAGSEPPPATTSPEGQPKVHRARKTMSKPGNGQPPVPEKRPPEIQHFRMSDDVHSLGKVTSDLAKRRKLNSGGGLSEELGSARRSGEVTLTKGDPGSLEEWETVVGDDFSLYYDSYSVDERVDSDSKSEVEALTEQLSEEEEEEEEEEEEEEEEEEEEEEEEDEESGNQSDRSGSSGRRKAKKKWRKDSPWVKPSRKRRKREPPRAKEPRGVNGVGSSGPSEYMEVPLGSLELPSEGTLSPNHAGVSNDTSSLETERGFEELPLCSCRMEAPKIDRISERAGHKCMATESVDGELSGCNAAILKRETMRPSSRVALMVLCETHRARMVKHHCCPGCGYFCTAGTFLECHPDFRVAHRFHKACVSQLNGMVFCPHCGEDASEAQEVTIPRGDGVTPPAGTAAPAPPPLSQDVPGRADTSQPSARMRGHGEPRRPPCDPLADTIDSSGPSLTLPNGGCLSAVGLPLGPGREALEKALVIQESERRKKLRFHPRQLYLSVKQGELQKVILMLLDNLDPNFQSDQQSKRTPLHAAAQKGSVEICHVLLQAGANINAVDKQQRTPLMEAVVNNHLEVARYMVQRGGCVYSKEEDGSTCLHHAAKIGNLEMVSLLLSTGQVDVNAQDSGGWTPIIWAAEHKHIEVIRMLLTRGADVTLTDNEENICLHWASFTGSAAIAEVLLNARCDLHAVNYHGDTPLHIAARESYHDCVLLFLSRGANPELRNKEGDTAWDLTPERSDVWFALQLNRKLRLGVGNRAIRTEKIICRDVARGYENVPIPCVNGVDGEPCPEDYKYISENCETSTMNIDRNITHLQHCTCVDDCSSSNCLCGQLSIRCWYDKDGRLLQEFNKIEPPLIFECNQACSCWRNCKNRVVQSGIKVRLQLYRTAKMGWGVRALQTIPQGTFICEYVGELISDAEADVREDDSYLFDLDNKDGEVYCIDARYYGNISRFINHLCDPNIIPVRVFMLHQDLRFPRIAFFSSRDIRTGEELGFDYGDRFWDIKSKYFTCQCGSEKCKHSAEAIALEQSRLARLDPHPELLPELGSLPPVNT

LSD1/CoREST complex [3] = molecular target: T1, LSD1/CoREST complex; assay: Inhibition of human LSD1/CoREST using histone H3 peptide as substrate by fluorescence polarization assay; type: protein-complex assay
[4] = Cytotoxicity against human derived mesenchymal stem cells assessed as residual cell viability at 1.25 uM measured after 72 hrs relative to control; type: toxicity, cell-based; details: read-out: Activity
SJRH30 [5] = assay: Antiproliferative activity against human Rh30 cells assessed as inhibition of cell growth incubated for 72 hrs; type: functional, cell-based; details: SJRH30, 72 h
MV4-11 [6] = assay: Induction of cell cycle arrest in human MV4-11 cells assessed as accumulation of cells at G1 phase at 0.2 to […] incubated for 24 hrs; type: functional, cell-based; details: dose 0.2-2.5 µM
[7] = Cytotoxicity against HMEC cells assessed as residual cell viability at 1 uM incubated for 72 hrs by MTT assay relative to control; type: toxicity, cell-based; details: human, read-out: Activity
THP-1 [8] = assay: Antiproliferative activity against human THP-1 cells assessed as inhibition of cell growth incubated for 72 hrs by CellTiter-Glo luminescent cell viability assay; type: functional, cell-based; details: THP-1, 72 h
RD [9] = assay: Antiproliferative activity against human RD cells assessed as inhibition of cell growth incubated for 72 hrs; type: functional, cell-based
MV4-11 [10] = assay: Antiproliferative activity against human MV4-11 cells assessed as inhibition of cell growth at […] incubated for 72 to 144 hrs by trypan blue staining based analysis; type: functional; details: dose 2.5 µM, time 72-144 hrs
SJRH30 [11] = assay: Antiproliferative activity against human Rh30 cells assessed as inhibition of cell growth incubated for 24 hrs; type: functional, cell-based; details: SJRH30, 24 h
RD [12] = assay: Antiproliferative activity against human RD cells assessed as reduction in live cells at 2 uM incubated for 72 hrs by calceinAM/propidium iodide staining based fluorescence microscopy; type: functional, cell-based
MV4-11 [13] = assay: Induction of apoptosis in human MV4-11 cells assessed as accumulation of cells at sub-G1 phase incubated for 24 hrs; type: functional, cell-based; details: dose 0.2-25 µM, DDE = dose-dependent effect
MDA-MB-231 = assay: Antiproliferative activity against human MDA-MB-231 cells assessed as inhibition of cell growth measured after 72 hrs by MTT assay; type: functional, cell-based; details: MDA-MB-231, 72 h
[14] = molecular target: Lysine-specific histone demethylase 1A (Homo sapiens) (UniProt O60341); assay: Inhibition of LSD1 in human Rh30 cells assessed as increase in H3K4me2 level at 1 uM incubated for 48 hrs by Western blot analysis; type: cell-based
RD [15] = assay: Induction of apoptosis in human RD cells assessed as increase in caspase 3/7 level at 2 uM incubated for 24 hrs; type: functional, cell-based
THP-1 [16] = assay: Antiproliferative activity against human THP-1 cells assessed as inhibition of cell growth incubated for 24 hrs by CellTiter-Glo luminescent cell viability assay; type: functional, cell-based; details: THP-1, 24 h
[17] = molecular target: Lysine-specific histone demethylase 1A (Homo sapiens) (UniProt O60341); assay: Inhibition of LSD1 in human RD cells assessed as increase in H3K4me2 level at 1 uM incubated for 48 hrs by Western blot analysis; type: cell-based
SJRH30 [18] = assay: Antiproliferative activity against human Rh30 cells assessed as inhibition of cell growth incubated for 144 hrs; type: functional, cell-based; details: SJRH30, 144 h
RD [19] = assay: Antiproliferative activity against human RD cells assessed as inhibition of cell growth incubated for 144 hrs; type: functional, cell-based
[20] = Cytotoxicity against human AHH-1 cells assessed as residual cell viability at 1 uM measured after 72 hrs by MTT assay relative to control; type: toxicity, cell-based; details: read-out: Activity
RD [21] = assay: Antiproliferative activity against human RD cells assessed as inhibition of cell growth incubated for 24 hrs; type: functional, cell-based
SJRH30 [22] = assay: Induction of apoptosis in human Rh30 cells assessed as increase in caspase 3/7 level at 2 uM incubated for 24 hrs; type: functional, cell-based
SJRH30 [23] = assay: Antiproliferative activity against human Rh30 cells assessed as reduction in live cells at 2 uM incubated for 24 hrs by calceinAM/propidium iodide staining based fluorescence microscopy; type: functional, cell-based
THP-1 [24] = assay: Antiproliferative activity against human THP-1 cells assessed as inhibition of cell growth incubated for 144 hrs by CellTiter-Glo luminescent cell viability assay; type: functional, cell-based; details: THP-1, 144 h
[25] = molecular target: Lysine-specific histone demethylase 1A (Homo sapiens) (UniProt O60341); assay: Inhibition of LSD1 in human MV4-11 cells assessed as increase in H3K4me2 level at 0.2 to […] incubated for 24 hrs by Western blot analysis; type: cell-based; details: dose 0.2-2.5 µM

SMILES: COc1cc2nc(NC3CCN(C)CC3)nc(NC3CCN(Cc4ccccc4)CC3)c2cc1OC
- Kd (LSD1/CoREST complex [1]): 82 nM
- Ki [2]: 6330 nM

SMILES: COc1cc2nc(NCCCN(C)C)nc(NC3CCN(Cc4cccc5ccccc45)CC3)c2cc1OC
- Ki (LSD1/CoREST complex [3]): 212 nM
- Kd (LSD1/CoREST complex [1]): 84 nM
- Ki [2]: 3100 nM

SMILES: COc1cc2nc(NCCCN(C)C)nc(NC3CCN(Cc4ccc5ccccc5c4)CC3)c2cc1OC
- viability at 72 h, 1.25 µM [4]: 96%
- IC50 (SJRH30 [5]): 910 nM
- Activity (MV4-11 [6]): Active
- viability at 72 h, 1 µM [7]: 96.5%
- IC50 (THP-1 [8]): 160 nM
- IC50 (RD [9]): 1230 nM
- inhibition (MV4-11 [10]): Active
- IC50 (SJRH30 [11]): 1210 nM
- Activity (RD [12]): Active
- Activity (MV4-11 [13]): Dde
- IC50 (MDA-MB-231): 210 nM
- inhibition [14]: Active
- Activity (RD [15]): Active
- Ki (LSD1/CoREST complex [3]): 156 nM
- IC50 (THP-1 [16]): 300 nM
- inhibition [17]: Active
- IC50 (SJRH30 [18]): 690 nM
- IC50 (RD [19]): 900 nM
- viability at 72 h, 1 µM [20]: 81.5%
- IC50 (RD [21]): 2280 nM
- Activity (SJRH30 [22]): Active
- Activity (SJRH30 [23]): Active
- IC50 (THP-1 [24]): 92 nM
- Kd (LSD1/CoREST complex [1]): 75 nM
- Ki [2]: 2930 nM
- inhibition [25]: Active

SMILES: COc1cc2nc(NCCCN3CCOCC3)nc(NC3CCN(Cc4ccccc4)CC3)c2cc1OC
- Kd (LSD1/CoREST complex [1]): 369 nM
- Ki [2]: 22600 nM

SMILES: COc1cc2nc(NCCCCN(C)C)nc(NC3CCN(Cc4ccccc4)CC3)c2cc1OC
- Kd (LSD1/CoREST complex [1]): 112 nM
- Ki [2]: 4240 nM

SMILES: COc1cc2nc(NCCCN(C)C)nc(OC3CCN(Cc4ccccc4)CC3)c2cc1OC
- Kd (LSD1/CoREST complex [1]): 2850 nM
- Ki [2]: > 100000 nM

SMILES: COc1cc2nc(N(C)CCCN(C)C)nc(NC3CCN(Cc4ccccc4)CC3)c2cc1OC
- Kd (LSD1/CoREST complex [1]): 1300 nM
- Ki [2]: 5820 nM

SMILES: CCN(CC)CCCNc1nc(NC2CCN(Cc3ccccc3)CC2)c2cc(OC)c(OC)cc2n1
- Ki (LSD1/CoREST complex [3]): 175 nM
- Kd (LSD1/CoREST complex [1]): 86 nM
- Ki [2]: 3940 nM

Continued by falling Kd (LSD1/CoREST complex [1]), values first:

- Kd (LSD1/CoREST complex [1]): 1560 nM
- Ki [2]: 4830 nM
SMILES: COc1cc2nc(NCCCN(C)C)nc(NC3CCNCC3)c2cc1OC

- Kd (LSD1/CoREST complex [1]): 1490 nM
- Ki [2]: 4170 nM
SMILES: COc1cc2nc(NCCCN(C)C)nc(NC3CCN(C)CC3)c2cc1OC

- Kd (LSD1/CoREST complex [1]): 975 nM
- Ki [2]: 32900 nM
SMILES: COc1cc2nc(NCCCN(C)C)nc(NC3CCN(C(=O)c4ccccc4)CC3)c2cc1OC

- Kd (LSD1/CoREST complex [1]): 228 nM
- Ki [2]: 48300 nM
SMILES: COc1cc2nc(NCCCN(C)C)nc(NCCCNc3ccccc3)c2cc1OC

- Kd (LSD1/CoREST complex [1]): 127 nM
- Ki [2]: 2790 nM
SMILES: COc1cc2nc(NCCCCCN(C)C)nc(NC3CCN(Cc4ccccc4)CC3)c2cc1OC

- Kd (LSD1/CoREST complex [1]): 115 nM
- Ki [2]: 22800 nM
SMILES: COc1cc2nc(NCCCN(C)C)nc(NCC3CCN(Cc4ccccc4)CC3)c2cc1OC
